# Data: patent US12186356B2, “Composition for preventing, alleviating, or treating allergic skin disease comprising as active ingredient extract of gardenia fruit from which pigment is removed” (KOREA INSTITUTE OF ORIENTAL MEDICINE, priority 2018, dated 2025)
# Columns and labels:
# [1] = tested on: NC/Nga mouse with induced allergic atopic dermatitis (house dust mite antigen); experiment: Number of itching in an animal model with allergic atopic dermatitis, extract orally administered; format: in vivo; details: oral 100 mg/kg or 200 mg/kg once a day for 14 days; itching counted for 20 minutes; p<0.05 to p<0.001; FIG. 6
# Description: On the skin of a 8-week old NC/Nga mouse, 100 mg of an ointment (AD Biostir, Japan) which contains components originating from house dust mite as an antigen causing allergic atopy were applied, total 6 times for 21 days with an interval of 3 to 4 days to induce allergic atopic dermatitis. On a day of starting the test, 150μl of 4% SDS were applied to the animal, and, after allowing it to stand for 1 hour, 100 mg of the house dust mite antigen were applied to back and both ears of the animal, respectively. Seven days after inducing allergic atopic dermatitis, the animal was orally administered with 100 mg/kg or 200 mg/kg of the pharmaceutical (extract of gardenia fruit or extract of gardenia fruit from which pigment is removed), once a day for 14 days.
# Thereafter, using the animal model with induced allergic dermatitis, number of itching in the ear and back of the animal for 20 minutes was examined once a week to compare the effects obtained according to administration of a pharmaceutical. All the measurement results are expressed in terms of mean and standard deviation (SD), and a difference among test groups was subjected to a statistical analysis using one-way ANOVA. Statistical significance was recognized when p is less than 0.05 (p<0.05).
# mast cells = experiment: Number of mast cells in ear and back skin tissues, toluidine blue staining; format: in vivo, NC/Nga mouse; details: applied on skin, p<0.01 or p<0.001, FIG. 5
# Description: (§1) On the skin of a 8-week old NC/Nga mouse, 100 mg of an ointment (AD Biostir, Japan) which contains components originating from house dust mite as an antigen causing allergic atopy were applied, total 6 times for 21 days with an interval of 3 to 4 days to induce allergic atopic dermatitis. Seven days after inducing allergic atopic dermatitis, the animal was applied with 1 mg/ml of the pharmaceutical (extract of gardenia fruit (GJE 1%), extract of gardenia fruit from which pigment is removed (GJE-CR 1%), or tacrolimus), once a day for 14 days. Skin tissues of the ear and back of a mouse with induced allergic dermatitis were collected and, by toluidine blue (TB) staining and use of an image measuring program (Solution FL ver 9.1), number of mast cells was determined. All the measurement results are expressed in terms of mean and standard deviation (SD), and a difference among test groups was subjected to a statistical analysis using one-way ANOVA. Statistical significance was recognized when p is less than 0.05 (p<0.05).
# [2] = tested on: NC/Nga mouse with induced allergic atopic dermatitis (house dust mite antigen); experiment: Skin state and number of scratching (itching) in an animal model with allergic atopic dermatitis, extract applied on skin; format: in vivo; details: applied on skin once a day for 14 days; itching counted for 20 minutes; p<0.001; FIG. 3
# Description: On the skin of a 8-week old NC/Nga mouse, 100 mg of an ointment (AD Biostir, Japan) which contains components originating from house dust mite as an antigen causing allergic atopy were applied, total 6 times for 21 days with an interval of 3 to 4 days to induce allergic atopic dermatitis. Seven days after inducing allergic atopic dermatitis, the animal was applied with 1 mg/ml of the pharmaceutical (extract of gardenia fruit (GJE 1%), extract of gardenia fruit from which pigment is removed (GJE-CR 1%), or tacrolimus), once a day for 14 days. Thereafter, using the mouse with induced allergic dermatitis, number of itching for 20 minutes and level of skin damage on ear and back of the animal were examined once a week. All the measurement results are expressed in terms of mean and standard deviation (SD), and a difference among test groups was subjected to a statistical analysis using one-way ANOVA. Statistical significance was recognized when p is less than 0.05 (p<0.05).
# inflammatory cells = experiment: Change in inflammatory cell infiltration in ear and back skin tissues, H&E staining; format: in vivo, NC/Nga mouse; details: skin tissues of back and ear; applied on skin; p<0.01 or p<0.001; FIG. 4
# Description: as §1, with “H&E (hematoxylin and eosin)” for “toluidine blue (TB)”, “a change in inflammatory cell infiltration” for “number of mast cells”
Structure (SMILES),number of scratching (number of itching) over days compared to the control group (Control) [1],mast cells compared to the control group (Control) (mast cells),number of scratching (number of itching) compared to the control group (Control) [2],inflammatory cells compared to the control group (Control) (inflammatory cells)
C[C@]12C=CC(=O)C=C1CC[C@@H]1[C@@H]2[C@@H](O)C[C@@]2(C)[C@H]1CC[C@]2(O)C(=O)CO [prednisolone],decreased with statistical significance,–,–,–
C=CC[C@@H]1/C=C(\C)C[C@H](C)C[C@H](OC)[C@H]2O[C@@](O)(C(=O)C(=O)N3CCCC[C@H]3C(=O)O[C@H](/C(C)=C/[C@@H]3CC[C@@H](O)[C@H](OC)C3)[C@H](C)[C@@H](O)CC1=O)[C@H](C)C[C@@H]2OC [tacrolimus],–,decreased with statistical significance,decreased with statistical significance,decreased with statistical significance
